According to patent US20190314379A1, “METHODS OF USING CANNABINOID CB2 RECEPTOR AGONIST COMPOSITIONS TO SUPPRESS AND PREVENT OPIOID TOLERANCE AND WITHDRAWAL IN A SUBJECT” (Indiana University Research and Technology Corporation, priority 2018, published 2019):

Key:
[1] = test system: preclinical inflammatory, postoperative, and neuropathic pain; details: dose- and time-dependent; cited from earlier work
[2] = test system: morphine analgesia and antinociceptive tolerance; details: rats, with morphine; cited from earlier work
keratinocytes = details: cited from earlier work
[3] = test system: μ-opioid receptor expression; details: spinal cord and dorsal root ganglia (DRG); cited from earlier work
[4] = test system: Walker 256 tumor-bearing rats; details: cited from earlier work
[5] = test system: formalin model of inflammatory pain; details: coadministration; cited from earlier work
human CB2 = human CB2 (Homo sapiens, UniProt P34972); test: Forskolin-stimulated cAMP accumulation (cyclase), HEK hCB2; format: cell-based; set-up: expressed in transfected cells
[6] = test system: paclitaxel-induced cold allodynia; test: Paclitaxel-induced cold allodynia (acetone); format: in vivo, mouse
Procedure: (§1) In all studies, the experimenter was blinded to the treatment condition, and mice were randomly assigned to experimental conditions. Paclitaxel (4 mg/kg i.p.) was administered four times on alternate days (cumulative dose, 16 mg/kg i.p.) to induce neuropathic pain as described previously by our group (Deng et al., 2015). Control mice received an equal volume of cremophor-vehicle. Development of paclitaxel-induced allodynia was assessed on day 0, 4, 7, 11, and 14.
(§2) Effects of pharmacologic manipulations were assessed at 30 minutes after drug administration during the maintenance phase of paclitaxel-induced neuropathy (i.e., beginning day 18-20 after initial paclitaxel injection).
(§3) In experiments 2 and 3, pharmacologic manipulations were performed once daily for 12 consecutive days in each of the two phases of chronic treatment. Four days separated phase 1 and phase 2 chronic dosing in all studies comprising two phases of chronic dosing. Experiments 2 and 3 were performed concurrently using overlapping cohorts that were tested with a single vehicle (phase 1), vehicle (phase 2) group.
(§4) We then assessed the antiallodynic efficacy of chronic systemic administration of vehicle or morphine (10 mg/kg per day i.p.×12 days) administered during phase 2 in the same animals. Responsiveness to mechanical and cold stimulation was evaluated on treatment days 1, 4, 8, and 12 during phase 1 and on treatment days 16, 19, 23, and 27 during phase 2 (i.e., phase 2 started on day 16).
(§5) In experiment 4, we evaluated the impact of coadministration of morphine (10 mg/kg i.p.×12 days) with a submaximal dose of LY 2828360 (0.1 mg/kg per day i.p.×12 days) in WT and CB2 KO mice.
Response time (seconds) spent attending to (i.e., elevating, licking, biting, or shaking) the paw stimulated with acetone (Sigma-Aldrich) was measured in triplicate for each paw to assess cold allodynia as previously published. An acetone bubble (approximately 5 to 6 p.1) formed at the end of a blunt 1-ml syringe hub was gently applied to the plantar surface of the hind paw. Care was taken not to apply mechanical stimulation to the hind paw with the syringe itself. The total time the animal spent attending to the acetone-stimulated paw (i.e., elevation, shaking, or licking) was recorded over 1 minute after acetone application. Acetone was applied three times to each paw with a 3-minute interval between applications. Values for each animal were calculated as the mean of six determinations of acetone responsiveness derived from each mouse.

[7] = test system: paclitaxel-induced mechanical allodynia; test: Paclitaxel-induced mechanical allodynia (electronic von Frey); format: in vivo, mouse
Procedure: as §1, §2, §3, §4, §5
Paw withdrawal thresholds (grams) to mechanical stimulation were measured in duplicate for each paw using an electronic von Frey anesthesiometer supplied with a 90-g probe (model Alemo 2390-5; IITC, Woodland Hills, Calif.) as described previously. Mice were placed on an elevated metal mesh table and allowed to habituate under individual, inverted plastic cages to the testing platform for at least 20 minutes until exploratory behavior had ceased. Alter the habituation period, a force was applied to the midplantar region of the hind paw with a semiflexible tip connected to the anesthesiometer. Mechanical stimulation was terminated when the animal withdrew its paw, and the value of the applied force was recorded in grams. Mechanical paw withdrawal thresholds were obtained in duplicate for each paw and are reported as the mean of duplicate determinations from each animal, averaged across animals, for each group.

[8] = test system: paclitaxel-induced neuropathic pain; details: 8 days once daily (i.p.) dosing or chronic infusion over 4 weeks; cited from earlier work
[9] = test system: naloxone-precipitated opioid withdrawal; test: Naloxone-precipitated opioid withdrawal in paclitaxel-treated mice; format: in vivo, mouse; details: paclitaxel-treated WT mice
Procedure: Alter the last injection of morphine (on day 28 for two-phase treatments, on day 13 for coadministration treatment), we challenged WT or CB2KO mice from experiments 2, 3, and 4 with vehicle, followed 30 minutes later by naloxone (5 mg/kg i.p.) to precipitate opioid receptor-mediated withdrawal. Mice were video-recorded for subsequent scoring of withdrawal-like behaviors for a 30-minute interval after challenge with vehicle or naloxone.
Mice were video-taped, and the number of jumps was scored in 5-minute intervals for a total observation period of 30 minutes after challenge with either saline or naloxone (5 mg/kg i.p.).

mouse CB2 receptors = molecular target: T1, mouse CB2 receptors (Mus musculus, UniProt P47936); test: Forskolin-stimulated cAMP accumulation (cyclase), HEK mCB2; format: cell-based
T1 construct: expressed in transfected cells

[10] = WT mice, 5 mg/kg per day i.p.×12 days
[11] = WT mice, AM1710 5 mg/kg per day×12 days phase I, morphine 10 mg/kg per day×12 days phase II
[12] = paclitaxel-treated WT mice, 5 mg/kg per day i.p.×12 days, vs vehicle

T1 sequence (P47936 whole entry): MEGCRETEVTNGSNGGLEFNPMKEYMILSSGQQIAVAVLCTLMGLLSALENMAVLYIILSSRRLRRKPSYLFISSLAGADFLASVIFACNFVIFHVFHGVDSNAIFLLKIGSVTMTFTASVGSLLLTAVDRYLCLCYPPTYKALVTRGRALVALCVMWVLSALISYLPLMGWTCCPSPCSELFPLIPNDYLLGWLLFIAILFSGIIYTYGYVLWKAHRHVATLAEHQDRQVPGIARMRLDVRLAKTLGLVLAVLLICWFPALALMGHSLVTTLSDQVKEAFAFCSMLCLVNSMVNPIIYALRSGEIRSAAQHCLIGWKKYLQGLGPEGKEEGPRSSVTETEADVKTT
Sequence of human CB2 (P34972 whole entry): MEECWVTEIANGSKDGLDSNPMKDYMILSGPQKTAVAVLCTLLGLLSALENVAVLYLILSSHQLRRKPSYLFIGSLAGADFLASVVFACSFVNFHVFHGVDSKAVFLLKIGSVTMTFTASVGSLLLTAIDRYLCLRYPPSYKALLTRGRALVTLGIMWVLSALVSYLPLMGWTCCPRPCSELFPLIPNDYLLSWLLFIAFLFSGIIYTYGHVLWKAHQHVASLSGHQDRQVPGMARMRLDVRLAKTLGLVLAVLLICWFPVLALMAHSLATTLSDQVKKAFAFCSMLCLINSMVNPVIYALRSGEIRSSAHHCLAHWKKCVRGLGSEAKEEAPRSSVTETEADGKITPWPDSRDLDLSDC

## CCCn1c(C)c(C(=O)c2cccc3ccccc23)c2ccccc21 [JWH015]
[1]
  pain inhibition on coadministration with morphine: synergistically inhibited preclinical inflammatory, postoperative, and neuropathic pain
[2]
  morphine analgesia and morphine antinociceptive tolerance: increased morphine analgesia and morphine antinociceptive tolerance

## CN1CCCCC1Cn1cc(C(=O)c2cc([N+](=O)[O-])ccc2I)c2ccccc21 (centres unmarked) [AM1241]
keratinocytes
  release of β-endorphin: stimulated the release of the endogenous opioid β-endorphin
[3]
  μ-opioid receptor expression: upregulated μ-opioid receptor expression
[4]; low dose coadministered with morphine
  morphine tolerance: reduced the morphine tolerance
[4]; tumor-bearing rats
  opioid-mediated antinociception, hotplate and mechanical sensitivity: modest enhancement of opioid-mediated antinociception

## CCCC(C)(C)c1ccc2c(c1)OC(C)(C)[C@@H]1CC=C(C)C[C@@H]21 [JWH133]
[5]
  opioid-sparing effects: exhibited opioid-sparing effects

## CCCCCCC(C)(C)c1cc(O)c2c(c1)oc(=O)c1ccc(OC)cc12 [AM1710, 3-(1,1-dimethyl-heptyl)-1-hydroxy-9-methoxy-benzo(c) chromen-6-one]
Human CB2; HEK hCB2
  cAMP levels, compound alone (no forskolin): alone did not change the cAMP levels
  duration of decrease in cAMP: up to 30 minutes
Human CB2; HEK hCB2, 1 μM final concentration
  inhibition of forskolin-induced cAMP levels, time course: induced a delayed and persistent inhibition of forskolin-stimulated cAMP levels, starting at 10 minutes
Human CB2; HEK hCB2, 1 μM final concentration, PTX
  inhibition of forskolin-stimulated cAMP after PTX pretreatment: blocked the inhibition of forskolin-stimulated cAMP
Human CB2; HEK hCB2, with forskolin, 5 minutes, PTX
  cAMP levels vs forskolin alone in PTX-treated cells: increased cAMP levels compared with forskolin alone
[6]; [10]
  tolerance to antiallodynic effects over repeated administration, cold: tolerance did not develop
[6]; [11]
  development of tolerance to phase II morphine, cold: delayed the development of tolerance to morphine
[6]; [12]
  cold response time, chronic phase I treatment: reduced the heightened cold response time
[7]; [10]
  tolerance to antiallodynic effects over repeated administration, mechanical: tolerance did not develop
[7]; [11]
  development of tolerance to phase II morphine, mechanical: delayed the development of tolerance to morphine
[7]; [12]
  mechanical paw withdrawal thresholds, chronic phase I treatment: increased mechanical paw withdrawal thresholds
[8]
  paclitaxel-induced neuropathic pain, tolerance and physical dependence: suppresses paclitaxel-induced neuropathic pain without producing tolerance or physical dependence
[9]
  naloxone-precipitated jumps, AM1710 (I)-morphine (II) vs vehicle (I)-vehicle (II): did not differ
[9]; AM1710 5 mg/kg i.p.×12 days, morphine 10 mg/kg i.p.×12 days
  number of naloxone-precipitated jumps, AM1710 (I)-morphine (II) vs vehicle (I)-morphine (II): lower
Mouse CB2 receptors; HEK mCB2, 1 μM
  time by which inhibition of forskolin-stimulated cAMP dissipated: ≤ 15 min
Mouse CB2 receptors; HEK mCB2, 1 μM final concentration, 5 minutes
  forskolin-induced cAMP levels: attenuated forskolin-induced cAMP levels
Mouse CB2 receptors; HEK mCB2, compound alone
  cAMP levels in the absence of forskolin: alone did not change cAMP levels
Mouse CB2 receptors; HEK mCB2, compound alone, 10 minutes
  cAMP levels in the absence of forskolin at 10 minutes: decreased cAMP levels below the basal/no forskolin level
Mouse CB2 receptors; mCB2, 1 μM, PTX 300 ng/ml overnight
  forskolin-stimulated cAMP after PTX treatment: abolished the decrease in forskolin-stimulated cAMP
